Results taken from patent US20140363386A1, “DUALISTIC MOLECULES HAVING UV RADIATION FILTRATING ABILITY AT WIDE SPECTRUM AND POTENT DAMPING ACTIVITY OF THE REACTIVITY OF FREE RADICALS (RADICAL SCAVENGING)” (UNIVERSITA DEGLI STUDI FERRARA, priority 2012, published 2014).

Experiments:
[1] = DPPH test: reducing activity of anti-oxidant molecules against the radical DPPH; type: biochemical; conditions: Trolox equivalents
Protocol: (§1) The compound object of the present invention was tested through different in vitro tests that complement one another, in order to evaluate its ability to counteract different radical species.
(§2) In particular, the DPPH test, based on the measurement of the reducing activity of anti-oxidant molecules against the radical DPPH (2,2-diphenyl-1-picrylhydrazyl), the FRAP (Ferric Reducing/Antioxidant Power) test, which measures the ability of an anti-oxidant to reduce the Fe^3+ ions to Fe^2+ ions in acid conditions and in the presence of TPTZ (2,4,6-tripyridyl-triazine) and PCL (Photochemiluminescence) analysis, which allows measurement of the inhibition by the anti-oxidants of photo-induced auto-oxidation of the luminol promoted by the superoxide anion, were used.
(§3) In table 1, in which the values are expressed in μmol Trolox/mmol compound, some examples are given.

[2] = FRAP (Ferric Reducing/Antioxidant Power) test; type: biochemical; conditions: anti-oxidant activity, Trolox equivalents; acid conditions, TPTZ
Protocol: as §1, §2, §3

[3] = PCL (Photochemiluminescence) analysis of the compounds; type: biochemical; conditions: anti-oxidant activity, Trolox equivalents; photo-induced auto-oxidation of luminol
Protocol: as §1, §2, §3

[4] = maximum wavelength absorbable (λ max), UV absorption; type: physicochemical; conditions: for λ max: pH between 7.4 and 8 in a phosphate buffer
Protocol: Moreover, the compound object of the present invention recorded a significant increase in the maximum wavelength absorbable (λ max) with respect to 2-phenyl-1H-benzimidazole-5-sulfonic acid, which has been taken as reference.
Some examples are given in table 2, in which the λ max were measured at pH comprised between 7.4 and 8 in a phosphate buffer.
In 5 ml of ethanol 100 mg of 3,4-diamine-benzenesulfonic acid sulfate salt (0.35 mmol), 48 mg of 3,4 dihydroxybenzaldehyde (0.35 mmol) and 0.7 ml of sodium bisulfite solution 1N (0.7 mmol) were mixed. The reaction mixture was placed at 80° C. for 24 hours. After having evaporated the solvents, the raw product was treated with 5 ml of solution 5M of HCl. The precipitate was then filtered and the product recrystallized from methanol.

[5] = in vitro spectrophotometric determination of solar protection parameters of standard formulations (Diffey and Robson); conditions: standard formulation containing the compound at 3%
Text: Determining the UVA/UVB ratio is a parameter that is mostly independent from the SPF value that provides a clear indication of the protective power of the solar product against UVA rays. According to the Boots scale, when the value of such a ratio is comprised between 0.6 and 0.8 the product offers a high UVA protection, when the value is greater than 0.8 the UVA protection is considered to be its maximum.
The critical λ is an important instrumental parameter for evaluating the protective power of the solar product against UVA rays: when the critical λ is greater than 370 nm the product offers protection over a wide spectrum.
Determining the solar protection parameters was carried out through in vitro tests that foresee the use of spectrophotometric techniques, according to the international protocol Diffey and Robson (B. L. Diffey, J. Robson, J. Soc. Cosm. Chem., 1989, 40: 127-133).
As well as 2-phenyl-1H-benzimidazole-5-sulfonic acid, as reference product with which to compare the data a commercial filter (Neo Heliopan® AP) was also used, known to be a water-soluble exclusively UVA filter with critical λ greater than 370 nm. The results of some standard formulations containing a compound according to the present invention are given as an example in table 3.
(§4) Standard Formulation 3% Prepared at pH 7.2-7.6

[6] = PCL analysis of anti-oxidant activity of standard formulations; type: biochemical; conditions: standard formulation containing the compound at 3%
Text: as §2
We then proceeded to measure the anti-oxidant activity through PCL analysis of the standard formulations containing a compound according to the present invention at the concentration of 3%. Such an anti-oxidant activity was measured in order to compare it with the reference molecules.
as §4

[7] = known property of the commercial filter; cited from earlier work

SMILES | DPPH [1] | FRAP [2] | PCL [3] | λ max [4] | SPF [5] | UVA/UVB (ratio between UVA absorbance and UVB absorbance) [5] | λ critical [5] | anti-oxidant activity through PCL analysis [6] | maximum absorption in the UV region ([4]; product of Example 1, medium not stated) | critical λ [7]
Oc1ccc(-c2nc3ccccc3[nH]2)c(O)c1 [2-(2,4-Dihydroxy-phenyl)-1H-benzimidazole] | 16.5 ± 0.5 μmol Trolox/mmol compound | 37.3 ± 0.3 μmol Trolox/mmol compound | 198 ± 3 μmol Trolox/mmol compound | 315.5 nm | 4.85 ± 0.71 | 1.31 ± 0.04 | 379.5 nm | 8.66 ± 0.04 μmol Trolox/g cosmetic formulation |  | 
O=C(O)c1ccc2[nH]c(-c3ccc(O)cc3O)nc2c1 [2-(2,4-Dihydroxy-phenyl)-1H-benzoimidazole-5-carboxylic acid] | 32.2 ± 2.1 μmol Trolox/mmol compound | 31.6 ± 1.7 μmol Trolox/mmol compound | 160 ± 4 μmol Trolox/mmol compound | 321.5 nm | 4.70 ± 0.62 | 1.48 ± 0.03 | 369.5 nm | 4.97 ± 0.17 μmol Trolox/g cosmetic formulation |  | 
Oc1ccc(-c2nc3ccccc3[nH]2)cc1O [2-(3,4-Dihydroxy-phenyl)-1H-benzimidazole] | 1975 ± 15 μmol Trolox/mmol compound | 2523 ± 29 μmol Trolox/mmol compound | 27442 ± 329 μmol Trolox/mmol compound | 311 nm | 7.07 ± 1.36 | 0.93 ± 0.02 | 367.5 nm | 760 ± 5 μmol Trolox/g cosmetic formulation |  | 
O=C(O)c1ccc2[nH]c(-c3ccc(O)c(O)c3)nc2c1 [2-(3,4-Dihydroxy-phenyl)-1H-benzoimidazole-5-carboxylic acid] | 1772 ± 75 μmol Trolox/mmol compound | 1803 ± 22 μmol Trolox/mmol compound | 22014 ± 360 μmol Trolox/mmol compound | 317 nm | 9.82 ± 1.30 | 1.21 ± 0.04 | 369.5 nm | 383 ± 18 μmol Trolox/g cosmetic formulation |  | 
O=S(=O)(O)c1ccc2[nH]c(-c3ccc(O)c(O)c3)nc2c1 [2-(3,4-dihydroxy-phenyl)-1H-benzoimidazole-5-sulfonic acid] | 2145 ± 40 μmol Trolox/mmol compound | 2313 ± 26 μmol Trolox/mmol compound | 27855 ± 764 μmol Trolox/mmol compound | 313.5 nm | 13.36 ± 2.20 | 0.88 ± 0.04 | 358.5 nm | 725 ± 3 μmol Trolox/g cosmetic formulation | 313 nm | 
O=C(O)c1ccc2[nH]c(-c3ccc(O)cc3)nc2c1 [2-(4-Hydroxy-phenyl)-1H-benzoimidazole-5-carboxylic acid] | 1.19 ± 0.02 μmol Trolox/mmol compound | 2.62 ± 0.06 μmol Trolox/mmol compound | 7 ± 0.3 μmol Trolox/mmol compound | 312.5 nm | 8.42 ± 1.55 | 0.89 ± 0.05 | 350 nm | 0.16 ± 0.02 μmol Trolox/g cosmetic formulation |  | 
O=S(=O)(O)c1ccc2[nH]c(-c3ccccc3)nc2c1 [2-phenyl-1H-benzimidazole-5-sulfonic acid, reference compound] | 4.40 ± 0.03 μmol Trolox/mmol compound | 0.79 ± 0.05 μmol Trolox/mmol compound | <0 μmol Trolox/mmol compound | 302.5 nm | 6.33 ± 1.24 | 0.31 ± 0.06 | 333 nm | 0 μmol Trolox/g cosmetic formulation |  | 
O=S(=O)([O-])c1cc(S(=O)(=O)O)cc2[nH]c(-c3ccc(-c4nc5c(S(=O)(=O)[O-])cc(S(=O)(=O)O)cc5[nH]4)cc3)nc12.[Na+].[Na+] [Neo Heliopan ® AP, reference compound] |  |  |  |  | 4.59 ± 0.37 | 2.46 ± 0.12 | 371 nm | 0 μmol Trolox/g cosmetic formulation |  | greater than 370 nm
